Experimental data reported in patent US10479819B2 (priority 2014, dated 2019).
Starred links: 1 amine or outer side, 2 acyl side, 3 side chain; linkers in the order of their positions; H or OH if unused. Non-standard residues stand in square brackets, D forms with d. Residues, ends and D or L forms follow the SMILES beside them. Groups on a side chain read outwards from the residue. *: point of attachment. C18 diacid = O=C(O)CCCCCCCCCCCCCCCCC(=O)*; γGlu = O=C(O)[C@H](CCC(=O)[*:2])N[*:1]; PEG2 = NCCOCCOCCC(=O)O; Aib = CC(C)(N)C(=O)O

Tests used:
[1] = tested on: male C57B1/6J mice; experiment: Oral glucose tolerance test in male C57B1/6J mice; format: in vivo; details: 250 μg/kg; for AUC of blood glucose in all four OGTT curve periods (0-480 min) compared with carrier (PBS): P<0.05; for effect on oral glucose tolerance: male C57B1/6J mice
Procedure: 12-16 week-old male C57B1/6J mice (Nanjing University model animal research center) were randomly divided into groups 8 in each group, according to similar blood glucose (assessed by the blood samples obtained from the tail tip). After fasting (for 6 hours), the animals were administrated, and about 4 hours later, initial blood samples (fasting blood glucose level) were taken. Subsequently, the animals were administrated with an oral dose of glucose, and then put back into their cages (t=0). Blood glucose was measured at t=15 minutes, t=30 minutes, t=60 minutes, t=90 minutes and t=120 minutes. And then the animals were administrated with an oral dose of glucose again, and blood glucose was tracked until 8 hours.

[2] = tested on: DIO mice; experiment: Body weight reduction in DIO (obese) mice; format: in vivo; details: 250 μg/kg SC daily, day 11 to day 30, DIO mice
Excerpt: Forty 25-week-old DIO mice (Nanjing University model animal research center) were randomly divided into five groups (compound 4, 5, 6, 7, and normal saline group), 8 in each group, having no difference in the basis weight of each group.

[3] = Pharmacokinetic analysis after IV or SC administration in male CD1 mice; details: for Tmax / half-life: iv
Procedure: Pharmacokinetic parameters of the drugs were calculated by methods of model dependence (for data obtained from IV) and model independence (data obtained from SC).

[4] = molecular target: T1, human GLP-1R (Homo sapiens, UniProt P43220); experiment: In vitro activity on GLP-1R, CRE-luciferase HEK-293 cells; format: cell-based; details: for GLP-1R/GCGR: ratio of EC50 GLP-1R to EC50 GCGR
T1 construct: expressed in transfected cells
Procedure: 5000 of HEK-293 cells, which are used in CRE-luciferase system and express human GCGR or GLP-1R stably, were inoculated into 384 well plates according to […] DMEM/10% FBS media/well. […] After incubation, […] of luciferase reagent was added directly to each plate and mixed gently for 2 minutes. The plates were placed into an Elmer Perkin plate reader for reading. Concentration curve of the compound was made by drawing software Prism 5, and the EC50 value was calculated.

T1 sequence (P43220 24-463): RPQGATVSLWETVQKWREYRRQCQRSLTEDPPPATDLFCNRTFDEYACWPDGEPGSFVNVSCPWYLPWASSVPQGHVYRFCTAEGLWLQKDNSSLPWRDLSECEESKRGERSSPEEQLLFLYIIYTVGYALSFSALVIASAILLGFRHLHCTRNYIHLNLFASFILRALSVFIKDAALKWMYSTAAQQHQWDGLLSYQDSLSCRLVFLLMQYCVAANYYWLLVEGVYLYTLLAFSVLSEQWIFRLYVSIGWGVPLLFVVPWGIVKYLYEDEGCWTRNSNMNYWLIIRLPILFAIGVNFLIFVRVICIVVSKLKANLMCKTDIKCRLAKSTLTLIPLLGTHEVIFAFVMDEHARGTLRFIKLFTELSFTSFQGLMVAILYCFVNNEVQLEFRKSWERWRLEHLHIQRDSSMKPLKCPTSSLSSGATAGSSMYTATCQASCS

| SMILES | AUC of blood glucose in all four OGTT curve periods (0-480 min) compared with carrier (PBS) [1] | effect on oral glucose tolerance [1] | weight loss [2] | body weight compared with normal saline group ([2]; P<0.05) | clinical adverse effect ([3]; mouse, in vivo) | Tmax ([3]; mouse, in vivo) | half-life ([3]; mouse, in vivo) | peak time ([3]; mouse, in vivo, sc) | GLP-1R/GCGR [4] | clinical adverse effect ([3]; IV or SC route, male CD1 mice) | EC50 [4] |
| --- | --- | --- | --- | --- | --- | --- | --- | --- | --- | --- | --- |
| CCCCCCCCCCCCCCCC(=O)N[C@@H](CCC(=O)NCCOCCOCCC(=O)NCCOCCOCCC(=O)NCCCC[C@H](NC(=O)[C@H](CC(=O)O)NC(=O)[C@H](CO)NC(=O)[C@@H](NC(=O)[C@H](Cc1ccccc1)NC(=O)[C@@H](NC(=O)CNC(=O)[C@H](CCC(N)=O)NC(=O)[C@@H](CO)NC(=O)[C@@H](N)Cc1c[nH]cn1)[C@@H](C)O)[C@@H](C)O)C(=O)N[C@@H](CO)C(=O)N[C@@H](CCCCN)C(=O)N[C@@H](Cc1ccc(O)cc1)C(=O)N[C@@H](CC(C)C)C(=O)N[C@@H](CC(=O)O)C(=O)NC(C)(C)C(=O)N[C@@H](CCCNC(=N)N)C(=O)N[C@@H](CCCNC(=N)N)C(=O)N[C@@H](C)C(=O)N[C@@H](CCC(N)=O)C(=O)N[C@@H](CC(=O)O)C(=O)N[C@@H](Cc1ccccc1)C(=O)N[C@H](C(=O)N[C@@H](CCC(N)=O)C(=O)N[C@@H](Cc1c[nH]c2ccccc12)C(=O)N[C@@H](CC(C)C)C(=O)N[C@@H](CCSC)C(=O)N[C@@H](CC(N)=O)C(=O)N[C@H](C(=O)NCC(=O)NCC(=O)N1CCC[C@H]1C(=O)N[C@@H](CO)C(=O)N[C@@H](CO)C(=O)NCC(=O)N[C@@H](C)C(=O)N1CCC[C@H]1C(=O)N1CCC[C@H]1C(=O)N1CCC[C@H]1C(=O)N[C@@H](CO)C(N)=O)[C@@H](C)O)C(C)C)C(=O)O [Compound 7] | significantly decreased | significantly reduced the oral glucose tolerance | about 20% | significantly lower | no clinical adverse effect | ~12 h | 4 to 6 h | more than 12 hours |  |  |  |
| CC(C)C[C@H](NC(=O)[C@H](CC(C)C)NC(=O)[C@H](Cc1c[nH]c2ccccc12)NC(=O)[C@H](CCC(N)=O)NC(=O)[C@@H](NC(=O)[C@H](Cc1ccccc1)NC(=O)[C@H](CC(=O)O)NC(=O)[C@H](CCC(N)=O)NC(=O)[C@H](C)NC(=O)[C@H](CCCNC(=N)N)NC(=O)[C@H](CCCNC(=N)N)NC(=O)[C@H](CCC(=O)O)NC(=O)[C@H](CC(=O)O)NC(=O)[C@H](CC(C)C)NC(=O)[C@H](Cc1ccc(O)cc1)NC(=O)[C@H](CCCCN)NC(=O)[C@H](CO)NC(=O)[C@H](CCCCNC(=O)CCOCCOCCNC(=O)CCOCCOCCNC(=O)CC[C@H](NC(=O)CCCCCCCCCCCCCCCCC(=O)O)C(=O)O)NC(=O)[C@H](CC(=O)O)NC(=O)[C@H](CO)NC(=O)[C@@H](NC(=O)[C@H](Cc1ccccc1)NC(=O)[C@@H](NC(=O)CNC(=O)[C@H](CCC(N)=O)NC(=O)C(C)(C)NC(=O)[C@@H](N)Cc1c[nH]cn1)[C@@H](C)O)[C@@H](C)O)C(C)C)C(=O)N[C@@H](CC(=O)O)C(=O)NCC(=O)NCC(=O)N1CCC[C@H]1C(=O)N[C@@H](CO)C(=O)N[C@@H](CO)C(=O)NCC(=O)N[C@@H](C)C(=O)N1CCC[C@H]1C(=O)N1CCC[C@H]1C(=O)N1CCC[C@H]1C(=O)N[C@@H](CO)C(N)=O [Compound 20] (H-H[Aib]QGTFTSDK([PEG2-PEG2-γGlu-C18 diacid])SKYLDERRAQDFVQWLLDGGPSSGAPPPS-NH2) | significantly decreased | significantly reduced the oral glucose tolerance |  |  |  | ~12 h | 4 to 6 h |  | 0.18 | no clinical adverse effect |  |
| CCCCCCCCCCCCCCCC(=O)N[C@@H](CCC(=O)NCCOCCOCCC(=O)NCCOCCOCCC(=O)NCCCC[C@H](NC(=O)[C@H](CC(=O)O)NC(=O)[C@H](CO)NC(=O)[C@@H](NC(=O)[C@H](Cc1ccccc1)NC(=O)[C@@H](NC(=O)CNC(=O)[C@H](CCC(N)=O)NC(=O)C(C)(C)NC(=O)[C@@H](N)Cc1c[nH]cn1)[C@@H](C)O)[C@@H](C)O)C(=O)N[C@@H](CO)C(=O)N[C@@H](CCCCN)C(=O)N[C@@H](Cc1ccc(O)cc1)C(=O)N[C@@H](CC(C)C)C(=O)N[C@@H](CC(=O)O)C(=O)NC(C)(C)C(=O)N[C@@H](CCCNC(=N)N)C(=O)N[C@@H](CCCNC(=N)N)C(=O)N[C@@H](C)C(=O)N[C@@H](CCC(N)=O)C(=O)N[C@@H](CC(=O)O)C(=O)N[C@@H](Cc1ccccc1)C(=O)N[C@H](C(=O)N[C@@H](CCC(N)=O)C(=O)N[C@@H](Cc1c[nH]c2ccccc12)C(=O)N[C@@H](CC(C)C)C(=O)N[C@@H](CC(C)C)C(=O)N[C@@H](CC(=O)O)C(=O)NCC(=O)NCC(=O)N1CCC[C@H]1C(=O)N[C@@H](CO)C(=O)N[C@@H](CO)C(=O)NCC(=O)N[C@@H](C)C(=O)N1CCC[C@H]1C(=O)N1CCC[C@H]1C(=O)N1CCC[C@H]1C(=O)N[C@@H](CO)C(N)=O)C(C)C)C(=O)O [Compound 21] | significantly decreased | significantly reduced the oral glucose tolerance |  |  |  | ~12 h | 4 to 6 h |  | 0.23 | no clinical adverse effect |  |
| CC(C)C[C@H](NC(=O)[C@H](CC(C)C)NC(=O)[C@H](Cc1c[nH]c2ccccc12)NC(=O)[C@H](CCC(N)=O)NC(=O)[C@@H](NC(=O)[C@H](Cc1ccccc1)NC(=O)[C@H](CC(=O)O)NC(=O)[C@H](CCC(N)=O)NC(=O)[C@H](C)NC(=O)[C@H](CCCNC(=N)N)NC(=O)[C@H](CCCNC(=N)N)NC(=O)C(C)(C)NC(=O)[C@H](CC(=O)O)NC(=O)[C@H](CC(C)C)NC(=O)[C@H](Cc1ccc(O)cc1)NC(=O)[C@H](CCCCN)NC(=O)[C@H](CO)NC(=O)[C@H](CCCCNC(=O)CCOCCOCCNC(=O)CCOCCOCCNC(=O)CC[C@H](NC(=O)CCCCCCCCCCCCCCCCC(=O)O)C(=O)O)NC(=O)[C@H](CC(=O)O)NC(=O)[C@H](CO)NC(=O)[C@@H](NC(=O)[C@H](Cc1ccccc1)NC(=O)[C@@H](NC(=O)CNC(=O)[C@H](CCC(N)=O)NC(=O)C(C)(C)NC(=O)[C@@H](N)Cc1c[nH]cn1)[C@@H](C)O)[C@@H](C)O)C(C)C)C(=O)N[C@@H](CC(=O)O)C(=O)NCC(=O)NCC(=O)N1CCC[C@H]1C(=O)N[C@@H](CO)C(=O)N[C@@H](CO)C(=O)NCC(=O)N[C@@H](C)C(=O)N1CCC[C@H]1C(=O)N1CCC[C@H]1C(=O)N1CCC[C@H]1C(=O)N[C@@H](CO)C(N)=O [Compound 22] (H-H[Aib]QGTFTSDK([PEG2-PEG2-γGlu-C18 diacid])SKYLD[Aib]RRAQDFVQWLLDGGPSSGAPPPS-NH2) | significantly decreased | significantly reduced the oral glucose tolerance |  |  |  | ~12 h | 4 to 6 h |  | 0.19 | no clinical adverse effect | 0.06 nM |
